From publication PMC6405930, “Conservation of the Amyloid Interactome Across Diverse Fibrillar Structures” (Scientific Reports, 2019)

Legend:
Ab2 fibrils [1] = tested on: T1, Ab2 fibrils; test: Fibril incubation with plasma, quantitative MS/MS of bound proteins; type: binding, human; settings: 50:1 w/w plasma protein:fibril
T1 construct: Two structurally distinct fibrils of the Aβ(1–40) peptide associated with AD
Experimental: (§1) Plasma and CSF solutions were centrifuged (40,000 g, 20 min) to remove any aggregates. The protein concentration was determined using 280 nm absorbance assuming 1 Abs = 1 mg/mL. […] Control samples (without fibril material) were prepared similarly. All samples were incubated at room temperature for one hour under gentle agitation. Fibrils and fibril-bound proteins were pelleted by centrifugation at 17,000 g for 30 minutes. The supernatant (175 μL) was removed and the aggregate was re-suspended in 175 μL PBS and pelleted again before further preparation for gel analysis and spin-filter assisted digest for quantitative MS/MS.
(§2) The fibril-protein pellets were transferred to spin-filters (0.22 μm), washed twice in PBS (100 μL) and once in 1 M NaCl (100 μL). The fibrils and fibril-bound proteins were dissolved by one-hour incubation in 100 μL 6 M guanidinium chloride followed by elution from the spin-filter. The eluted proteins were loaded onto a 3 kDa MWCO filter unit for filter-assisted unfolding, reduction, alkylation, and trypsin digestion. In brief, samples were washed twice in 8 M urea, once in 8 M urea with 50 mM DTT, once in 8 M urea with 50 mM iodoaceteamide, and twice in 8 M Urea. The filter units were dried by centrifugation (14,000 g in 30 minutes) after every addition. Trypsin digestion was carried out with 0.25 μg sequencing grade trypsin from Sigma Aldrich in 50 mM ammonium bicarbonate overnight at 37 °C. The tryptic peptides were collected by centrifugation, acidified with TFA (0.1%) and micro-purified using POROS R2 column material (Applied Biosystems) packed in P200 pipette tips (Sarstedt).
(§3) LC-MS/MS analyses were performed on an EASY-nLC II system (Thermo Fisher Scientific) connected to a TripleTOF 5600+ mass spectrometer (Sciex) equipped with a NanoSpray III source (Sciex) and operated under Analyst TF 1.6.0 control.
(§4) The micro-purified tryptic peptides were dissolved in 0.1% formic acid, injected and trapped on an in-house packed trap column (2 cm × 100 μm I.D) with RP ReproSil-Pur C18-AQ 3 μm resin (Dr. Maisch GmbH). Peptides were eluted from the trap column and separated on a 15 cm analytical column (75 μm i.d.) packed in-house in a pulled emitter with RP ReproSil-Pur C18-AQ 3 μm resin (Dr. Maisch GmbH). Elution from the analytical column was performed with a linear gradient from 5% to 35% phase B (90% acetonitrile with 0.1% formic acid) over 20 min for protein identification and 50 min for quantitative analysis, respectively.
(§5) All samples were analysed three times, yielding nine MS/MS experiments for each fibril for both plasma and CSF. For the area-based extracted ion chromatogram (XIC) quantification, the acquisition method was set up as an information-dependent acquisition (IDA) experiment collecting up to 25 MS/MS spectra in each 1.6 sec cycle using an exclusion window of 6 sec.
(§6) XIC quantification was based on the average ion intensity of the three most abundant peptides for each protein. Only proteins quantified in at least four out of nine MS/MS experiments per fibril were included in the quantification. The total ion scores were visualized after grouping the proteins according to function (Figure S11).
(§7) For each MS/MS experiment, the ion intensities of the individual proteins were normalized to the total ion intensity of that MS/MS experiment to achieve a relative protein composition. The contribution of each protein was averaged over all nine MS/MS experiments (Tables 1 and 2).

C-36 fibrils [2] = molecular target: T2, C-36 fibrils (Homo sapiens, UniProt P01009); test: Fibril incubation with CSF, quantitative MS/MS of bound proteins; type: binding; parameters: key to Identification status of CSF protein bound: C-36: *: Identified, but not quantified; —: Not identified in any of the samples; settings: for Relative composition of CSF proteins bound: C-36: 4:1 w/w CSF protein:fibril; for Identification status of CSF protein bound: C-36: symbol cells
T2 construct: the 36 residue C-terminal fragment of α1-antitrypsin (C-36)
T2 sequence (P01009 383-418 limits assumed): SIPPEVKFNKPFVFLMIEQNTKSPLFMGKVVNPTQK
Experimental: as §1, §2, §3, §4, §5, §6, §7

Ab2 fibrils [3] = tested on: T1, Ab2 fibrils; test: as above; type: binding, human; parameters: key to Identification status of CSF protein bound: Ab2: *: Identified, but not quantified; —: Not identified in any of the samples; settings: for Relative composition of CSF proteins bound: Ab2: 4:1 w/w CSF protein:fibril; for Identification status of CSF protein bound: Ab2: symbol cells
Experimental: as §1, §2, §3, §4, §5, §6, §7

αSN fibrils [4] = molecular target: T3, αSN fibrils (Homo sapiens, UniProt P37840); test: Fibril incubation with plasma, quantitative MS/MS of bound proteins; type: binding; parameters: key to Identification status of plasma protein bound: αSN: *: Identified, but not quantified; —: Not identified in any of the samples; settings: for Identification status of plasma protein bound: αSN: symbol cells; for Relative composition of plasma proteins bound: αSN: 50:1 w/w plasma protein:fibril
Experimental: as §1, §2, §3, §4, §5, §6, §7

glucagon fibrils [5] = molecular target: T4, glucagon fibrils (Homo sapiens, UniProt P01275); test: as above; type: binding; settings: 50:1 w/w plasma protein:fibril
T4 construct: fibrils of the peptide hormone glucagon
T4 sequence (P01275 53-81 limits assumed): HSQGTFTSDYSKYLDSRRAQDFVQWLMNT
Experimental: as §1, §2, §3, §4, §5, §6, §7

C-36 fibrils [6] = molecular target: T2, C-36 fibrils; test: as above; type: binding; parameters: key to Identification status of plasma protein bound: C-36: *: Identified, but not quantified; —: Not identified in any of the samples; settings: for Relative composition of plasma proteins bound: C-36: 50:1 w/w plasma protein:fibril
Experimental: as §1, §2, §3, §4, §5, §6, §7

Ab1 fibrils [7] = tested on: T5, Ab1 fibrils; test: Fibril incubation with CSF, quantitative MS/MS of bound proteins; type: binding, human; settings: 4:1 w/w CSF protein:fibril
T5 construct: Synthetic amyloid β peptide 1–40 was purchased from Caslo Aps (Lyngby, Denmark); purchased Caslo Aps (Lyngby, Denmark); host or cells: synthetic peptide
Experimental: as §1, §2, §3, §4, §5, §6, §7

αSN fibrils [8] = molecular target: T3, αSN fibrils; test: as above; type: binding; parameters: key to Identification status of CSF protein bound: αSN: *: Identified, but not quantified; —: Not identified in any of the samples; settings: for Relative composition of CSF proteins bound: αSN: 4:1 w/w CSF protein:fibril; for Identification status of CSF protein bound: αSN: symbol cells
Experimental: as §1, §2, §3, §4, §5, §6, §7

Ab1 fibrils [9] = tested on: T5, Ab1 fibrils; test: Fibril incubation with plasma, quantitative MS/MS of bound proteins; type: binding, human; settings: 50:1 w/w plasma protein:fibril
Experimental: Plasma and CSF solutions were centrifuged (40,000 g, 20 min) to remove any aggregates. The protein concentration was determined using 280 nm absorbance assuming 1 Abs = 1 mg/mL. […] Control samples (without fibril material) were prepared similarly. All samples were incubated at room temperature for one hour under gentle agitation. Fibrils and fibril-bound proteins were pelleted by centrifugation at 17,000 g for 30 minutes. The supernatant (175 μL) was removed and the aggregate was re-suspended in 175 μL PBS and pelleted again before further preparation for gel analysis and spin-filter assisted digest for quantitative MS/MS.
as §2, §3, §4, §5, §6, §7

glucagon fibrils [10] = molecular target: T4, glucagon fibrils; test: Fibril incubation with CSF, quantitative MS/MS of bound proteins; type: binding; settings: 4:1 w/w CSF protein:fibril
Experimental: as §1, §2, §3, §4, §5, §6, §7

FAS4-AD aggregates [11] = tested on: T6, FAS4-AD aggregates; test: as above; type: binding, human; parameters: key to Identification status of CSF protein bound: FAS4-AD: *: Identified, but not quantified; —: Not identified in any of the samples; settings: for Relative composition of CSF proteins bound: FAS4-AD: 4:1 w/w CSF protein:fibril; for Identification status of CSF protein bound: FAS4-AD: symbol cells
T6 construct: aggregates of a mutated version of the FAS1-4 domain of TGFBIp
Experimental: as §1, §2, §3, §4, §5, §6, §7

FAS4-AD aggregates [12] = tested on: T6, FAS4-AD aggregates; test: Fibril incubation with plasma, quantitative MS/MS of bound proteins; type: binding, human; parameters: key to Identification status of plasma protein bound: FAS4-AD: *: Identified, but not quantified; —: Not identified in any of the samples; settings: for Relative composition of plasma proteins bound: FAS4-AD: 50:1 w/w plasma protein:fibril; for Identification status of plasma protein bound: FAS4-AD: symbol cells
Experimental: as §1, §2, §3, §4, §5, §6, §7

| Substance | Relative composition of plasma proteins bound: Ab2 (Ab2 fibrils [1]) | Relative composition of CSF proteins bound: C-36 (C-36 fibrils [2]) | Relative composition of CSF proteins bound: Ab2 (Ab2 fibrils [3]) | Identification status of plasma protein bound: αSN (αSN fibrils [4]) | Relative composition of plasma proteins bound: Glucagon (glucagon fibrils [5]) | Relative composition of plasma proteins bound: C-36 (C-36 fibrils [6]) | Relative composition of CSF proteins bound: Ab1 (Ab1 fibrils [7]) | Relative composition of CSF proteins bound: αSN (αSN fibrils [8]) | Relative composition of plasma proteins bound: Ab1 (Ab1 fibrils [9]) | Relative composition of CSF proteins bound: Glucagon (glucagon fibrils [10]) | Relative composition of CSF proteins bound: FAS4-AD (FAS4-AD aggregates [11]) | Relative composition of plasma proteins bound: FAS4-AD (FAS4-AD aggregates [12]) | Relative composition of plasma proteins bound: αSN (αSN fibrils [4]) | Relative composition of CSF proteins bound: FAS4-AD (FAS4-AD aggregates [11]; listed as clusterin) | Identification status of CSF protein bound: Ab2 (Ab2 fibrils [3]) | Identification status of CSF protein bound: αSN (αSN fibrils [8]) | Identification status of CSF protein bound: FAS4-AD (FAS4-AD aggregates [11]) | Identification status of plasma protein bound: FAS4-AD (FAS4-AD aggregates [12]) | Identification status of CSF protein bound: C-36 (C-36 fibrils [2]) | Identification status of plasma protein bound: C-36 (C-36 fibrils [6]; symbol cells) |
| --- | --- | --- | --- | --- | --- | --- | --- | --- | --- | --- | --- | --- | --- | --- | --- | --- | --- | --- | --- | --- |
| Apolipoprotein D: plasma/CSF protein bound to fibrils | 0.3 ± 0.0 % of total protein | 9.0 ± 2.3 % of total protein | 11.2 ± 0.6 % of total protein | * | 0.3 ± 0.1 % of total protein | 0.9 ± 0.1 % of total protein | 8.7 ± 0.4 % of total protein | 3.4 ± 0.5 % of total protein | 0.1 ± 0.0 % of total protein | 1.8 ± 0.3 % of total protein | 5.7 ± 0.4 % of total protein | 1.1 ± 0.1 % of total protein |  |  |  |  |  |  |  |  |
| Clusterin: plasma/CSF protein bound to fibrils | 2.2 ± 1.2 % of total protein | 8.6 ± 1.7 % of total protein | 6.9 ± 1.6 % of total protein |  | 0.5 ± 0.1 % of total protein | 3.5 ± 0.9 % of total protein | 9.4 ± 1.0 % of total protein | 12.2 ± 2.9 % of total protein | 1.1 ± 0.1 % of total protein | 2.4 ± 0.6 % of total protein | 22.8 ± 11.2 % of total protein | 7.9 ± 4.2 % of total protein | 1.6 ± 0.9 % of total protein | 22.8 % of total protein |  |  |  |  |  |  |
| Complement C1s subcomponent: plasma/CSF protein bound to fibrils | 0.7 ± 0.1 % of total protein | 0.7 ± 0.2 % of total protein |  | * | 0.2 ± 0.0 % of total protein | 0.4 ± 0.1 % of total protein | 0.2 ± 0.0 % of total protein |  | 0.3 ± 0.0 % of total protein | 0.2 ± 0.0 % of total protein |  |  |  |  | * | — | — | — |  |  |
| α1-antitrypsin: plasma/CSF protein bound to fibrils | 0.4±0.0 % of total protein |  |  | * | 0.6 ± 0.0 % of total protein |  | 0.5 ± 0.2 % of total protein |  | 0.4 ± 0.0 % of total protein | 1.0 ± 0.2 % of total protein |  | 1.4 ± 0.5 % of total protein |  |  | * | * | * |  | * | * |
| Complement C3: plasma/CSF protein bound to fibrils | 0.6 ± 0.1 % of total protein |  | 0.3 ± 0.1 % of total protein | * | 2.3 ± 0.2 % of total protein | 0.2 ± 0.0 % of total protein | 0.3 ± 0.1 % of total protein |  | 0.4 ± 0.0 % of total protein | 0.8 ± 0.2 % of total protein |  |  |  |  |  | — | — | * | * |  |
| Ig γ-1 chain C region: plasma/CSF protein bound to fibrils | 1.2 ± 0.1 % of total protein | 1.4 ± 0.2 % of total protein | 3.1 ± 0.3 % of total protein |  | 1.2 ± 0.2 % of total protein | 1.9 ± 0.2 % of total protein | 2.5 ± 0.1 % of total protein | 4.2 ± 0.4 % of total protein | 1.1 ± 0.1 % of total protein | 1.4 ± 0.5 % of total protein |  | 9.5 ± 2.6 % of total protein | 1.9 ± 0.9 % of total protein |  |  |  | * |  |  |  |
